Reference: patent publication US20080076772A1, “Anti-Inflammatory Agents” (Pharma Mar S.A. Sociedad Unipersonal, priority 2004, published 2008)

Columns and labels:
[1] = test system: in vitro differentiated macrophages; assay: Cell viability of in vitro differentiated macrophages (PI staining, flow cytometry); format: cell-based, human
Method: (§1) Apoptosis was detected by staining with AnnexinV and PI.
We next studied the effect of ecteinascidin 743 on already differentiated macrophages obtained from monocytes cultured in vitro for 5 days with M-CSF. […] Monocytes were differentiated to macrophages by culture with M-CSF (20 ng/ml). At day 3, ecteinascidin 743 was added to cultures and incubated for 48 h. […] Similar results were obtained in other 4 experiments. In a series of 4 different experiments, IC50 for in vitro differentiated was 10 nM.
We then tested the susceptibility to ecteinascidin 743 of macrophages classically activated by LPS and IFN gamma (or M1 macrophages) and alternatively activated by IL-4 (or M2 macrophages). In vitro differentiated macrophages were stimulated with LPS (100 ng/ml)+IFNgamma (500 UI:ml), Il-4 (20 ng/ml), in the presence or absence of ecteinascidin 743 for 48 h.

[2] = test system: TNF; assay: TNF production by LPS-stimulated TAM (ELISA); format: cell-based, human; settings: LPS 100 ng/ml, 16 h incubation, up to 10 nM
Method: (§2) Monocytes, macrophages and TAM were stimulated with 100 ng/ml LPS to induce maximal cytokine production. Determination of cytokines CCL2, TNF and IL-6 was measured by specific ELISA following the manufacturer's instructions.
(§3) To verify whether the inhibitory effect of ecteinascidin 743 on cytokine production was at the transcriptional level, we analyzed mRNA of CCL2 and TNF from LPS-stimulated macrophages by real time-PCR of CCL2 and TNF transcripts in LPS-stimulated monocytes exposed to ecteinascidin 743.

[3] = test system: CCL2; assay: CCL2 production by LPS-stimulated monocytes (ELISA); format: cell-based, human
Method: as §2, with “Supernatants of untreated cells or cells treated with ecteinascidin 743 or other anti-neoplastic agents were collected after 24 h culture and frozen. Monocytes,” for “Monocytes,”
Monocytes and in vitro differentiated macrophages were stimulated with LPS (100 ng/ml). After 1 h LPS stimulation they were treated with ecteinascidin 743. After 16 h incubation, cell supernatants were harvested and tested in ELISA. Under these treatment conditions cell viability was usually >85% for concentrations up to 5 nM. […] Mean inhibition at 5 nM, for monocytes, was 65% (range 50-80%, n=5) and was 50% (range 25-75%, n=5) for in vitro differentiated macrophages. Results are mean+/−SE of 3-5 experiments
Similar results were obtained when monocytes were stimulated with LPS (100 ng/ ml) and treated with ET743 and the other ecteinascidin compounds, although the overall inhibition was less marked compared with the previous experiment where the tumor supernantant was used as CCL2-inducing stimulus.
CCL2 and TNF production by LPS-stimulated monocytes treated with the indicated doses of the anti-tumor agents was also tested. Cell supernatants were harvested after 24 h-incubation and tested in ELISA. […] None of these compounds interfered with the production of TNF.
A major finding of our work is the inhibitory activity of ecteinascidin 743 on the production of inflammatory cytokines. Among various inflammatory cytokines produced by monocyte/macrophages we have tested IL-6, TNF and the chemokine CCL2. CCL2 is a chemokine attracting monocytes and other leukocyte subsets, and is produced both by monocyte/macrophages and several tumour cells. It has been described that ovarian adenocarcinoma cells produce huge amounts of CCL2 and that their levels correlate with the macrophage content of tumours. CCL2 is therefore one of the most important factors regulating monocyte/macrophages recruitment at the tumour site. […] Thus, lower levels of CCL2 by TAM and tumour cells are likely to reduce the number of macrophages recruited at the tumour site. In the above described in vitro experiments ecteinascidin 743 was present throughout the 16-h culture period. We also checked whether a shorter in vitro exposure to ecteinascidin 743 was sufficient to affect cytokine production. Monocytes exposed to ecteinascidin 743 were washed after 1 hour culture and replaced in fresh medium.

[4] = test system: Tumour-Associated Macrophages (TAM); assay: Cell viability of Tumour-Associated Macrophages from ovarian cancer ascites; format: cell-based; settings: Homo sapiens, Macrophage; 10 nM, 48 h, three patients
Excerpt: (§4) Tumour-associated macrophages (TAM) and tumour cells were isolated from the ascitic fluid of patients with diagnosed ovarian adenocarcinoma, admitted to the Clinic of Obstetrics and Gynecology of the University of Milan-Bicocca, S Gerardo Hospital. Cells contained in the ascitic fluid were centrifuged and isolated by differential density gradients of Ficoll and Percoll, and plastic adherence as previously described (see Allavena, P., Peccatori, F., Maggioni, D., Erroi, A., Sironi, M., Colombo, N., Lissoni, A., Galazka, A., Meiers, W., Mangioni, C., et al. Intraperitoneal recombinant gamma-interferon in patients with recurrent ascitic ovarian carcinoma: modulation of cytotoxicity and cytokine production in tumour-associated effectors and of major histocompatibility antigen expression on tumour cells. Cancer Res, 50: 7318-7323, 1990). Purity of TAM and tumour cell preparations was usually>65±10% as defined by morphology and phenotype analysis. Cells were treated with ecteinascidin 743 at the indicated concentrations and cultured for 1-5 days, as specified in figure legends. At the end of the incubation period cells were collected, washed and used for DNA analysis or functional assays.
as §1
We also tested Tumour-Associated Macrophages (TAM) isolated from the ascites of non-treated ovarian adenocarcinoma patients. […]

[5] = test system: CCL2; assay: Constitutive CCL2 production by freshly isolated ovarian tumour cells (ELISA); format: cell-based, human; settings: 16 h
Excerpt: as §4, with “At the end of the incubation period cells were collected, washed and used for DNA analysis or functional assays.” left out
Monocytes, macrophages and TAM were stimulated with 100 ng/ml LPS to induce maximal cytokine production. Determination of cytokines CCL2, TNF and IL-6 was measured by specific ELISA following the manufacturer's instructions. […]

[6] = test system: TNF; assay: TNF production by LPS-stimulated in vitro differentiated macrophages (ELISA); format: cell-based, human; settings: LPS 100 ng/ml, 16 h incubation
Method: as §2, §3

SMILES: COc1cc2c(cc1O)CCN[C@]21CS[C@@H]2c3c(OC(C)=O)c(C)c4c(c3[C@H](COC1=O)N1[C@@H]2[C@H]2c3c(cc(C)c(OC)c3O)C[C@@H]([C@@H]1O)N2C)OCO4 [ecteinascidin 743]
- IC50 ([1]; Homo sapiens, Macrophage, drug added in the last 48 h, series of 4 experiments): 10 nM
- susceptibility of LPS-stimulated and IL-4-stimulated macrophages ([1]; LPS 100 ng/ml + IFNgamma 500 UI/ml or IL-4 20 ng/ml, 48 h): susceptible to drug treatment similarly as non-stimulated macrophages
- production of TNF by TAM [2]: never inhibited
- inhibition at 0.005 µM ([3]; Homo sapiens, Monocyte, 5 nM, LPS 100 ng/ml, 16 h, n=5): 65%
- inhibition of CCL2 production ([3]; monocytes washed after 1 hour culture with drug, fresh medium): 57%
- inhibition of CCL2 production ([3]; monocytes, 16 h-treatment): 69%
- mortality at 0.01 µM [4]: 40 to 70%
- constitutive production of CCL2 by freshly isolated tumour cells [5]: reduced
- production of TNF by macrophages [6]: never inhibited
